Assay results as given in US10004701B2, “Methods and compositions for treating infection” (UNIVERSITY OF ROCHESTER, priority 2012, dated 2018).
Structures can show the parent of a compound that is named as a salt. Where two headings read alike, the source gives them in different places.

What was measured:
Experiment in all cases: AK assay 384-well format, Prestwick library screening
[1] = tested on: E. coli; assay type: cell-based, Escherichia coli; conditions: 50 μM final drug concentration; for fold induction at 50 µM: Escherichia coli, 3 h
[2] = tested on: A. baumannii strain 98-37-09; assay type: cell-based, Acinetobacter baumannii; conditions: 50 μM final drug concentration; for fold induction at 50 µM: Acinetobacter baumannii, 983709, 3 h
[3] = tested on: K. pneumoniae; assay type: cell-based, Klebsiella pneumoniae; conditions: 50 μM final drug concentration; for fold induction at 50 µM: Klebsiella pneumoniae, 3 h
[4] = tested on: E. cloacae; assay type: cell-based, Enterobacter cloacae; conditions: 50 μM final drug concentration; for fold induction at 50 µM: Enterobacter cloacae, 3 h
[5] = tested on: E. faecium; assay type: cell-based, Enterococcus faecium; conditions: 50 μM final drug concentration; for fold induction at 50 µM: Enterococcus faecium, 3 h
[6] = tested on: P. aeruginosa; assay type: cell-based, Pseudomonas aeruginosa; conditions: 50 μM final drug concentration; for fold induction at 50 µM: Pseudomonas aeruginosa, 3 h
[7] = tested on: S. aureus strain USA300-0114; assay type: cell-based, Staphylococcus aureus; conditions: 50 μM final drug concentration; for fold induction at 50 µM: Staphylococcus aureus, USA300, 3 h
[8] = 384-well format, cutoff for positive-scoring molecules 3-fold increase, read-out: AK-based Prestwick Library Screening Results, E. coli (increase in extracellular AK activity)
[9] = 384-well format, cutoff for positive-scoring molecules 3-fold increase, read-out: AK-based Prestwick Library Screening Results, A. baumannii (increase in extracellular AK activity)
[10] = 384-well format, cutoff for positive-scoring molecules 3-fold increase, read-out: AK-based Prestwick Library Screening Results, K. pneumoniae (increase in extracellular AK activity)
[11] = 384-well format, cutoff for positive-scoring molecules 3-fold increase, read-out: AK-based Prestwick Library Screening Results, E. cloacae (increase in extracellular AK activity)
[12] = 384-well format, cutoff for positive-scoring molecules 3-fold increase, read-out: AK-based Prestwick Library Screening Results, E. faecium (increase in extracellular AK activity)
[13] = 384-well format, cutoff for positive-scoring molecules 3-fold increase, read-out: AK-based Prestwick Library Screening Results, P. aeruginosa (increase in extracellular AK activity)
[14] = 384-well format, cutoff for positive-scoring molecules 3-fold increase, read-out: AK-based Prestwick Library Screening Results, S. aureus (increase in extracellular AK activity)
[15] = planktonic, cutoff for positive 3-fold increase

`Cc1[nH]c(=O)c(C#N)cc1-c1ccncc1` [Milrinone] showed a fold induction at 50 µM ([1]; planktonic E. coli, positive cutoff 3-fold increase, read-out: AK-based Prestwick library screening result, E. coli (fold increase in extracellular AK activity)) of 0.8, a fold induction at 50 µM ([2]; planktonic A. baumannii, positive cutoff 3-fold increase, read-out: AK-based Prestwick library screening result, A. baumannii (fold increase in extracellular AK activity)) of 0.8 and a fold induction at 50 µM ([3]; planktonic K. pneumoniae, positive cutoff 3-fold increase, read-out: AK-based Prestwick library screening result, K. pneumoniae (fold increase in extracellular AK activity)) of 0.8. For the same compound, the fold induction at 50 µM ([4]; planktonic E. cloacae, positive cutoff 3-fold increase, read-out: AK-based Prestwick library screening result, E. cloacae (fold increase in extracellular AK activity)) was 0.9, the fold induction at 50 µM ([5]; planktonic E. faecium, positive cutoff 3-fold increase, read-out: AK-based Prestwick library screening result, E. faecium (fold increase in extracellular AK activity)) was 0.9 and the fold induction at 50 µM ([6]; planktonic P. aeruginosa, positive cutoff 3-fold increase, read-out: AK-based Prestwick library screening result, P. aeruginosa (fold increase in extracellular AK activity)) was 0.9. It also gave a fold induction at 50 µM ([7]; planktonic S. aureus, positive cutoff 3-fold increase, read-out: AK-based Prestwick library screening result, S. aureus (fold increase in extracellular AK activity)) of 0.7.
`Nc1nc2ccc(OC(F)(F)F)cc2s1` [Riluzole hydrochloride] gave a fold induction at 50 µM [1, 8] of 0.2, a fold induction at 50 µM [2, 9] of 0.2 and a fold induction at 50 µM [3, 10] of 0.2. The fold induction at 50 µM [4, 11] was 0.5, the fold induction at 50 µM [5, 12] was 0.3 and the fold induction at 50 µM [6, 13] was 0.2. It also gave a fold induction at 50 µM [7, 14] of 0.2.
For `N=C(N)NC(=O)c1nc(Cl)c(N)nc1N` [Amiloride hydrochloride dihydrate], the fold induction at 50 µM [1, 8] was 0.5, the fold induction at 50 µM [2, 9] was 0.4 and the fold induction at 50 µM [3, 10] was 0.4. It also gave a fold induction at 50 µM [4, 11] of 0.4, a fold induction at 50 µM [5, 12] of 0.8 and a fold induction at 50 µM [6, 13] of 0.3. The fold induction at 50 µM [7, 14] was 0.4.
With `CC(C)(C)C(=O)OCOC(=O)[C@@H]1N2C(=O)[C@@H](NC(=O)[C@H](N)c3ccccc3)[C@H]2SC1(C)C` [Pivampicillin] the fold induction at 50 µM ([1]; planktonic E. coli, […], read-out: AK-based Prestwick library screening result, E. coli (fold increase in extracellular AK activity)) was 1.5, the fold induction at 50 µM ([2]; planktonic A. baumannii, […], read-out: AK-based Prestwick library screening result, A. baumannii (fold increase in extracellular AK activity)) was 1.8 and the fold induction at 50 µM ([3]; planktonic K. pneumoniae, […], read-out: AK-based Prestwick library screening result, K. pneumoniae (fold increase in extracellular AK activity)) was 0.9. It also gave a fold induction at 50 µM ([4]; planktonic E. cloacae, […], read-out: AK-based Prestwick library screening result, E. cloacae (fold increase in extracellular AK activity)) of 1.2, a fold induction at 50 µM ([5]; planktonic E. faecium, […], read-out: AK-based Prestwick library screening result, E. faecium (fold increase in extracellular AK activity)) of 1.1 and a fold induction at 50 µM ([6]; planktonic P. aeruginosa, […], read-out: AK-based Prestwick library screening result, P. aeruginosa (fold increase in extracellular AK activity)) of 0.9. The fold induction at 50 µM ([7]; planktonic S. aureus, […], read-out: AK-based Prestwick library screening result, S. aureus (fold increase in extracellular AK activity)) was 0.4.
`CC#C[C@]1(O)CC[C@H]2[C@@H]3CCC4=CC(=O)CCC4=C3[C@@H](c3ccc(N(C)C)cc3)C[C@@]21C` [Mifepristone] gave a fold induction at 50 µM ([1]; planktonic E. coli, 384-well, […], read-out: AK-based Prestwick Library Screening Results: E. coli (increase in extracellular AK activity)) of 1.3, a fold induction at 50 µM ([2]; planktonic A. baumannii, 384-well, cutoff for positive-scoring molecules 3-fold increase, read-out: AK-based Prestwick Library Screening Results: A. baumannii (increase in extracellular AK activity)) of 1.1 and a fold induction at 50 µM ([3]; planktonic K. pneumoniae, 384-well, cutoff for positive-scoring molecules 3-fold increase, read-out: AK-based Prestwick Library Screening Results: K. pneumoniae (increase in extracellular AK activity)) of 0.9. For the same compound, the fold induction at 50 µM ([4]; planktonic E. cloacae, 384-well, cutoff for positive-scoring molecules 3-fold increase, read-out: AK-based Prestwick Library Screening Results: E. cloacae (increase in extracellular AK activity)) was 1.4, the fold induction at 50 µM ([5]; planktonic E. faecium, 384-well, cutoff for positive-scoring molecules 3-fold increase, read-out: AK-based Prestwick Library Screening Results: E. faecium (increase in extracellular AK activity)) was 1.1 and the fold induction at 50 µM ([6]; planktonic P. aeruginosa, 384-well, cutoff for positive-scoring molecules 3-fold increase, read-out: AK-based Prestwick Library Screening Results: P. aeruginosa (increase in extracellular AK activity)) was 1. The fold induction at 50 µM ([7]; planktonic S. aureus, 384-well, cutoff for positive-scoring molecules 3-fold increase, read-out: AK-based Prestwick Library Screening Results: S. aureus (increase in extracellular AK activity)) was 0.7.
`Nc1ccc(S(=O)(=O)Nc2ncccn2)cc1` [Sulfadiazine] was tested, and the fold induction at 50 µM [1, 8] was 1, the fold induction at 50 µM [2, 9] was 1.2 and the fold induction at 50 µM [3, 10] was 0.7. It also gave a fold induction at 50 µM [4, 11] of 0.9, a fold induction at 50 µM [5, 12] of 0.8 and a fold induction at 50 µM [6, 13] of 0.8. For the same compound, the fold induction at 50 µM [7, 14] was 0.7.
`C=C1c2c(Cl)ccc(O)c2C(=O)C2=C(O)[C@]3(O)C(=O)C(C(N)=O)=C(O)[C@@H](N(C)C)[C@@H]3[C@@H](O)[C@H]12.O=C(O)c1cc(S(=O)(=O)O)ccc1O` [Meclocycline sulfosalicylate] was tested, and the “AK-based Prestwick Library Screening Results, E. coli (fold increase in extracellular AK activity)” value [1, 15] was 0.8, the “AK-based Prestwick Library Screening Results, A. baumannii (fold increase in extracellular AK activity)” value [2, 15] was 3.2 and the “AK-based Prestwick Library Screening Results, K. pneumoniae (fold increase in extracellular AK activity)” value [3, 15] was 0.3. The “AK-based Prestwick Library Screening Results, E. cloacae (fold increase in extracellular AK activity)” value [4, 15] was 2.1, the “AK-based Prestwick Library Screening Results, E. faecium (fold increase in extracellular AK activity)” value [5, 15] was 1.0 and the “AK-based Prestwick Library Screening Results, P. aeruginosa (fold increase in extracellular AK activity)” value [6, 15] was 0.5. For the same compound, the “AK-based Prestwick Library Screening Results, S. aureus (fold increase in extracellular AK activity)” value [7, 15] was 4.3.
`O=P1(NCCCl)OCCCN1CCCl` (stereo not shown) [Ifosfamide] was tested, and the fold induction at 50 µM ([1]; planktonic, cutoff for positive-scoring molecules 3-fold increase, read-out: AK-based Prestwick Library Screening Results, E. coli (fold increase in extracellular AK activity)) was 9, the fold induction at 50 µM ([2]; planktonic, cutoff for positive-scoring molecules 3-fold increase, read-out: AK-based Prestwick Library Screening Results, A. baumannii (fold increase in extracellular AK activity)) was 0.8 and the fold induction at 50 µM ([3]; planktonic, cutoff for positive-scoring molecules 3-fold increase, read-out: AK-based Prestwick Library Screening Results, K. pneumoniae (fold increase in extracellular AK activity)) was 0.7. For the same compound, the fold induction at 50 µM ([4]; planktonic, cutoff for positive-scoring molecules 3-fold increase, read-out: AK-based Prestwick Library Screening Results, E. cloacae (fold increase in extracellular AK activity)) was 1.4, the fold induction at 50 µM ([5]; planktonic, cutoff for positive-scoring molecules 3-fold increase, read-out: AK-based Prestwick Library Screening Results, E. faecium (fold increase in extracellular AK activity)) was 0.8 and the fold induction at 50 µM ([6]; planktonic, cutoff for positive-scoring molecules 3-fold increase, read-out: AK-based Prestwick Library Screening Results, P. aeruginosa (fold increase in extracellular AK activity)) was 0.9. It also gave a fold induction at 50 µM ([7]; planktonic, cutoff for positive-scoring molecules 3-fold increase, read-out: AK-based Prestwick Library Screening Results, S. aureus (fold increase in extracellular AK activity)) of 0.8.
Compound `CN1CCN(C2=Nc3cc(Cl)ccc3Nc3ccccc32)CC1` [Clozapine] has a fold induction at 50 µM ([1]; planktonic E. coli, cutoff for positive-scoring molecules 3-fold increase, read-out: AK-based Prestwick Library Screening Results, E. coli (increase in extracellular AK activity)) of 0.9, a fold induction at 50 µM ([2]; planktonic A. baumannii, cutoff for positive-scoring molecules 3-fold increase, read-out: AK-based Prestwick Library Screening Results, A. baumannii (increase in extracellular AK activity)) of 0.9 and a fold induction at 50 µM ([3]; planktonic K. pneumoniae, cutoff for positive-scoring molecules 3-fold increase, read-out: AK-based Prestwick Library Screening Results, K. pneumoniae (increase in extracellular AK activity)) of 0.8. The fold induction at 50 µM ([4]; planktonic E. cloacae, cutoff for positive-scoring molecules 3-fold increase, read-out: AK-based Prestwick Library Screening Results, E. cloacae (increase in extracellular AK activity)) was 1, the fold induction at 50 µM ([5]; planktonic E. faecium, cutoff for positive-scoring molecules 3-fold increase, read-out: AK-based Prestwick Library Screening Results, E. faecium (increase in extracellular AK activity)) was 0.9 and the fold induction at 50 µM ([6]; planktonic P. aeruginosa, cutoff for positive-scoring molecules 3-fold increase, read-out: AK-based Prestwick Library Screening Results, P. aeruginosa (increase in extracellular AK activity)) was 1. The fold induction at 50 µM ([7]; planktonic S. aureus, cutoff for positive-scoring molecules 3-fold increase, read-out: AK-based Prestwick Library Screening Results, S. aureus (increase in extracellular AK activity)) was 0.7.
In the case of Isoetharine mesylate salt, the “AK-based Prestwick Library Screening Results, E. coli (fold increase in extracellular AK activity)” value ([1]; planktonic, […]) is reported as 0.9, the “AK-based Prestwick Library Screening Results, A. baumannii (fold increase in extracellular AK activity)” value ([2]; planktonic, […]) is reported as 0.8 and the “AK-based Prestwick Library Screening Results, K. pneumoniae (fold increase in extracellular AK activity)” value ([3]; planktonic, […]) is reported as 1.4. The “AK-based Prestwick Library Screening Results, E. cloacae (fold increase in extracellular AK activity)” value ([4]; planktonic, […]) was 0.9, the “AK-based Prestwick Library Screening Results, E. faecium (fold increase in extracellular AK activity)” value ([5]; planktonic, […]) was 0.9 and the “AK-based Prestwick Library Screening Results, P. aeruginosa (fold increase in extracellular AK activity)” value ([6]; planktonic, […]) was 0.6. For the same compound, the “AK-based Prestwick Library Screening Results, S. aureus (fold increase in extracellular AK activity)” value ([7]; planktonic, […]) was 0.6.
